Data set [1] can be described thus: refractive index (Na D-line) (dimensionless). As to conditions: 101.33 kPa, Liquid, Standard Abbe refractometry.
For data set [2] the following is noted: 298.15 K; 101.33 kPa; Liquid; Vibrating tube method.

Structures are written as SMILES. ± gives the expanded uncertainty stated by the source.

A word on the refractive index: it is a measure of how strongly the sample bends light. What is called mass density is the mass of a sample divided by its volume. For the compound `CC(=O)N(C)C` [N,N-dimethylethanamide], in data set [1] (298.1 K), the refractive index worked out at 1.4358 ± 0.0007. For the same compound, the mass density in data set [2] was determined as 936.38 ± 0.08 kg/m3.

Regarding `CNC=O` [N-methylformamide], in data set [1] (298.15 K), the refractive index was 1.4302 ± 0.0007. Moreover, the mass density in data set [2] is 998.94 ± 0.23 kg/m3.

For the compound `CN(C)C=O` [dimethylformamide], the refractive index in data set [1] (298.15 K) came to 1.4281 ± 0.0007. Further, the mass density in data set [2] came out at 943.9 ± 0.11 kg/m3.

On to `NC=O` [formamide], for which the refractive index in data set [1] (298.15 K) amounted to 1.4465 ± 0.0007. The mass density in data set [2] stood at 1129.16 ± 0.16 kg/m3.

The values above are taken from the NIST ThermoML archive (doi:10.1016/j.tca.2012.11.004).
